Source: patent US7833979B2, “Toxin peptide therapeutic agents” (Amgen Inc., priority 2005, dated 2010)
pIC50: −log10 of the molar value. Entries after “also recorded” stand apart in the source; their conditions may differ. Where no end group is shown, it is not given here.

How the values were obtained:
[1] = test system: thapsigargin-induced IL-2 and IFN-g production in human whole blood; assay: Ex vivo human whole blood assay, thapsigargin-induced secretion of IL-2 and IFN-g; assay type: cell-based; settings: for Thapsigargin-induced IFN-g production in human whole blood / Thapsigargin-induced IL-2 production in human whole blood: two donors, 48 hours
[2] = cited from earlier work
[3] = Intravenous pharmacokinetic study in rats, serum levels by Kv1.3 inhibition bioassay; assay type: in vivo, Spraque Dawley rats; settings: for Time of significant suppression of Kv1.3 current (<70 POC) by serum: single equal molar IV injection, 5% serum Test solutions
Method: This dose represented equal molar amounts of these two molecules. The average weight of the rats was about 0.3 kg and two rats were used for each dose & molecule. At various times following IV injection, blood was drawn and about 0.1 ml of serum was collected. Serum samples were stored frozen at −80° C. until analysis.
Assay Plate preparation for electrophysiology. […] Before experiments, each sample was thawed at room temperature and an aliquot (70 to 80 μl) was transferred to a well in a 96-well polypropylene plate. In order to prepare the Assay Plate, several dilutions were made from the pharmacokinetic serum samples to give rise to Test Solutions. Dilutions of serum samples from the pharmacokinetic study were into 10% Phosphate Buffered Saline (PBS, with Ca^2+ and Mg^2+). […] Standard inhibition curves were also prepared in the Assay Plate.
Cell preparation for electrophysiology. CHO cells stably expressing the voltage-activated K^+ channel, Kv1.3 were plated in T-175 tissue culture flasks (at a density of 5×10^6) 2 days before experimentation and allowed to grow to around 95% confluence. Immediately prior to the experiment, the cells were washed with PBS and then detached with a 2 ml mixture (1:1 volume ratio) of trypsin (0.25%) and versene (1:5000) at 37° C. (for 3 minutes). […] The mean K^+ current amplitude was measured between 430 and 440 ms and the data were exported to a Microsoft Excel spreadsheet. The amplitude of the K^+ current in the presence of each concentration of the Test Solution or Standard was expressed as a percentage of the K^+ current in control conditions in the same well.
Standard inhibition curves were generated for each standard in various levels of rat serum and expressed as current percent of control (POC) versus log of nM concentration. […]
Beyond 48 hours, the level of drug falls outside the linear range of the Standard curve and is not calculated. […]

[4] = test system: upregulation of CD40L and IL-2R on CD4+ T cells in human whole blood; assay: Ex vivo human whole blood assay, thapsigargin-induced cell surface CD40L and IL-2R on T cells (FACS); assay type: cell-based; settings: 24 hours
[5] = test system: IL-2 and IFNg production from anti-CD3 and anti-CD28 stimulated human PBMCs; assay: Inhibition of T cell cytokine production following anti-CD3 and anti-CD28 antibody stimulation of PBMCs; assay type: cell-based; settings: 48 hours
Method: Inhibition of T cell cytokine production following Anti-CD3 and anti-CD28 antibody stimulation of PBMCs. PBMCs were previously isolated from normal human donor Leukopheresis packs, purified by density gradient centrifugation (Ficoll Hypaque), and cryopreserved using INCELL Freezing Medium. PBMCs were thawed (95% viability), washed, and seeded (in RPMI complete medium containing serum replacement, PSG) at 2×10^5 cells per well into 96-well flat bottom plates. Cells were pre-incubated with serially diluted (100 nM-0.003 nM final) ShK[1-35], Fc-L10-ShK[1-35], or Fc control for 1 hour before the addition of aCD3 and aCD28 (2.5 ng/mL and 100 ng/mL respectively) in a final assay volume of […]. Supernatants were collected after 48 hours, and analyzed using the Meso Scale Discovery (MSD) SECTOR™ Imager 6000 (Meso Scale Discovery, Gaithersbury, Md.) to measure the IL-2 and IFNg protein levels by utilizing electrochemiluminescence (ECL). […] of supernatant was added to the MSD multi-spot 96-well plates (each well containing IL-2, TNFa, and IFNg capture antibodies). The plates were sealed and incubated at room temperature on a plate shaker for 1 hour. Then […] of Ruthenium-labeled detection antibodies (1 ug/ml final of IL-2, TNFα, and IFNγ in Antibody Dilution Buffer) and […] of 2×MSD Read Buffer were added. The plates were sealed, covered with tin foil, and incubated at room temperature on a plate shaker for 1 hour. The plates were then read on the SECTOR™ Imager 6000. […] (POC=Percent Of Control of response in the absence of inhibitor).

Kv1.3 = Kv1.3 (Homo sapiens, UniProt P22001); assay: Whole cell patch clamp electrophysiology on HEK293 cells stably expressing human Kv1.3; assay type: cell-based; settings: for Blockade of human Kv1.3 current (in words): patch clamp electrophysiology; for selectivity ratio hKv1.1/hKv1.3: ratio of hKv1.1 IC50 to hKv1.3 IC50
human Kv1.1 = target: T1, human Kv1.1 (Homo sapiens, UniProt Q09470); assay: Whole cell patch clamp electrophysiology, HEK293 cell expression system, human Kv1.1; assay type: cell-based
T1 construct: expressed in transfected cells; host or cells: HEK293

[6] = test system: AT-EAE model of multiple sclerosis; assay: Adoptive transfer experimental autoimmune encephalomyelitis (AT-EAE) model of multiple sclerosis; assay type: in vivo, Lewis rats; settings: for Survival to the end of the study: n=5 rats per group; for peak clinical severity score average: scale 0-6

Kv1.3, sequence (P22001 whole entry): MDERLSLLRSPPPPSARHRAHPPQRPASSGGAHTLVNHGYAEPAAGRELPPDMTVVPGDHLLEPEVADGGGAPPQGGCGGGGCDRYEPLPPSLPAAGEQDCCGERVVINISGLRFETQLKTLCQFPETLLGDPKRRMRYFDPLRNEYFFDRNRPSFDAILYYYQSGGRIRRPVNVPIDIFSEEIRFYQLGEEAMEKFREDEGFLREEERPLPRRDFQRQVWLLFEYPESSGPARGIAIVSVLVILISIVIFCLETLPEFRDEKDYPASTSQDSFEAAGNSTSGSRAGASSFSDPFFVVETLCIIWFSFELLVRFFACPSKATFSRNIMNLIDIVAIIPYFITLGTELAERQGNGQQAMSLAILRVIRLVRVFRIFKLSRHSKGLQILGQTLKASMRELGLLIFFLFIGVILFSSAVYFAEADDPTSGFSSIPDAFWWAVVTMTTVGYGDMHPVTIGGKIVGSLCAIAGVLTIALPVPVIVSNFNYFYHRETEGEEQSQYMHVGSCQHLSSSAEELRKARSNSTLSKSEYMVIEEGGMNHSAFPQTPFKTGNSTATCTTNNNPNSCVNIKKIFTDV
T1 sequence (Q09470 whole entry): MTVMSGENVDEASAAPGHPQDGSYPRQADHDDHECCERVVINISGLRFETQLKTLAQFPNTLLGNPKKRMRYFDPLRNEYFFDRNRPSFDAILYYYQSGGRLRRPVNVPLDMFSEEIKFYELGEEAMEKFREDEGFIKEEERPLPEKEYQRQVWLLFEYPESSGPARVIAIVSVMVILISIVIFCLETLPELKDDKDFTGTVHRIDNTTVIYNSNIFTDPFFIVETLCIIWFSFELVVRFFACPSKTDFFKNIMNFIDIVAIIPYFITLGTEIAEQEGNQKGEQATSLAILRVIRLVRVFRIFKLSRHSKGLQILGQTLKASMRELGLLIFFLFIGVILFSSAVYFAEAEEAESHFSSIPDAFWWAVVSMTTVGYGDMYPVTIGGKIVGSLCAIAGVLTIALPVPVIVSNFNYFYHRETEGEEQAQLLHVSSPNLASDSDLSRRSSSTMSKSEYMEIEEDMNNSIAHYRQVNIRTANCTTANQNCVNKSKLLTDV

With `CC[C@H](C)[C@@H]1NC(=O)[C@@H](NC(=O)[C@H](CO)NC(=O)[C@@H](N)CCCNC(=N)N)CSSC[C@@H](C(=O)O)NC(=O)[C@H]([C@@H](C)O)NC(=O)CNC(=O)[C@@H]2CSSC[C@@H]3NC(=O)[C@H](CCC(N)=O)NC(=O)[C@H](Cc4ccccc4)NC(=O)[C@H](C)NC(=O)[C@H]([C@@H](C)O)NC(=O)[C@H](CSSC[C@H](NC(=O)[C@H](Cc4ccccc4)NC(=O)[C@H](CO)NC(=O)[C@H](CC(C)C)NC(=O)[C@H](CCCNC(=N)N)NC(=O)[C@H](Cc4ccc(O)cc4)NC(=O)[C@H](CCCCN)NC(=O)[C@H](CCSC)NC(=O)[C@H](CO)NC(=O)[C@H](Cc4cnc[nH]4)NC(=O)[C@H](CCCCN)NC3=O)C(=O)N[C@@H](CCCNC(=N)N)C(=O)N[C@@H](CCCCN)C(=O)N[C@@H]([C@@H](C)O)C(=O)N2)NC(=O)[C@H](CCCNC(=N)N)NC(=O)[C@H](CO)NC(=O)[C@H](CCCCN)NC(=O)[C@@H]2CCCN2C(=O)[C@H]([C@@H](C)CC)NC(=O)[C@H]([C@@H](C)O)NC(=O)[C@H](CC(=O)O)NC1=O` [ShK[1-35], Stichodactyla helianthus neurotoxin, reference compound] the “Thapsigargin-induced IFN-g production in human whole blood” value (shortened to “Thapsigargin-induced IFN-g production”) [1] was “suppressed”, the “Thapsigargin-induced IL-2 production in human whole blood” value (“Thapsigargin-induced IL-2 production” for short) [1] was “suppressed” and the “Thapsigargin-induced IL-2 production” value ([1]; listed as ShK) was “potently blocked IL-2 secretion”. The “half-life in vivo of ShK” value [2] was about 0.333 h, the “half-life of native ShK” value ([2]; in vivo) was “approximately 0.33 hour” and the “Time of significant suppression of Kv1.3 current (<70 POC) by serum” value [3] was at most 1 h. For the same molecule, the “Thapsigargin-induced upregulation of CD40L on T cells in human whole blood” value [4] was “suppressed”, the “Thapsigargin-induced upregulation of the IL-2R on T cells in human whole blood” value [4] was “suppressed” and the “Thapsigargin-induced upregulation of the IL-2R on T cells in human whole blood” value ([4]; listed as ShK) was “suppressing activation of the IL-2R”. The “Inhibition of IFNg production” value [5] was “only partial inhibtion”, the “Inhibition of IL-2 production” value [5] was “only partial inhibtion” and the “Blockade of human Kv1.3 current (in words)” value (“Blockade” for short) (Kv1.3) was “potently block Kv1.3”.

For “Fc-L10-OSK1[E16K,K20D]: OSK1-peptibody with E16K and K20D substitutions; SEQ ID NO: 1045”, the “selectivity ratio hKv1.1/hKv1.3” value (Kv1.3) was 403.

For “Fc-L10-OSK1[K7S,E16K,K20D]: OSK1-peptibody with K7S, E16K and K20D substitutions; SEQ ID NO: 1047”, the “Potency and selectivity Kv1.3 versus Kv1.1 (in words)” value (human Kv1.1) was “significant decrease in potency as well as selectivity” and the “selectivity ratio hKv1.1/hKv1.3” value (Kv1.3) was 12.

In the case of “Fc-L10-OSK1[K7S]: OSK1-peptibody with lysine to serine substitution at position 7; SEQ ID NO: 1043”, the pIC50 (human Kv1.1; whole cell patch clamp, HEK293 cell expression system, human Kv1.1, read-out: hKv1.1:IC50) was 7.00 and the “selectivity ratio hKv1.1/hKv1.3” value (Kv1.3) was 269.

For “Fc-L10-ShK[2-35]: human IgG1 Fc fused via 10 amino acid linker to ShK[2-35]; SEQ ID NO: 81”, the “Potency in blocking IL-2 production relative to cyclosporine A (by IC50)” value ([1]; human whole blood) was “more than 200 times”, the “Thapsigargin-induced IFN-g production” value [1] was “suppressed; also recorded: blocked” and the “Thapsigargin-induced IL-2 production” value [1] was “suppressed; also recorded: potently blocked IL-2 secretion”. The “Thapsigargin-induced upregulation of CD40L on T cells in human whole blood” value [4] was “blocked”, the “Thapsigargin-induced upregulation of the IL-2R on T cells in human whole blood” value [4] was “blocked; also recorded: suppressing activation of the IL-2R” and the “Blockade” value (Kv1.3) was “potently blocks human Kv1.3 current”.

For “Fc-L-KTX1: peptibody: Fc fused via linker to Kaliotoxin1 (KTX1, SEQ ID NO: 24)”, the “Blockade” value (Kv1.3) was “blocked the human Kv1.3 current in a dose-dependent fashion”.

For “PEG-ShK[1-35]: synthetic ShK N-terminally PEGylated with 20 kDa monomethoxy-PEG-aldehyde by reductive alkylation; about 24-kDa”, the “terminal half-life (t1/2 b)” value ([3]; IV injection 1 mg/kg, estimated from curve) was 6 to 12 h, the “Time of significant suppression of Kv1.3 current (<70 POC) by serum” value [3] was “more than 24 hours” and the “Average body weight lost” value ([6]; 1 ug/kg) was 30 g. The Onset of disease ([6]; 1 μg/kg SC daily days −1 to 3) was 4 days, the “Average body weight lost” value ([6]; 10 μg/kg) was 18 g and the Onset of disease ([6]; 10 μg/kg SC daily days −1 to 3) was 4.5 days. The “Survival to the end of the study” value ([6]; 10 μg/kg) was “all but one rat survived to the end of the study”, the “peak clinical severity score average” value ([6]; 10 μg/kg) was under 2 and the “Average body weight lost” value ([6]; 100 μg/kg) was 11 g. For the same molecule, the Onset of disease ([6]; 100 μg/kg SC daily days −1 to 3) was 4.5 days, the “Survival to the end of the study” value ([6]; 100 μg/kg) was “all but one rat survived to the end of the study” and the “peak clinical severity score average” value ([6]; 100 μg/kg) was under 2. For the same molecule, the “Disease severity and survival (in words)” value ([6]; SC 10 μg/kg daily from day −1 to day 3) was “significantly reduced disease severity and increased survival” and the pIC50 (Kv1.3; blockade of peak outward potassium current, HEK293 cells stably expressing human Kv1.3, read-out: peak IC50) was 9.77.

With “PEG-ShK[2-35]: folded Des-Arg1-ShK N-terminally mono-PEGylated with 20 kDa MeO-PEG-aldehyde by reductive amination ({mPEG 20 kDa}-SCIDTIPKSRCTAFQCKHSMKYRLSFCRKTCGTC; disulfide (positions not given here); ends not checked; also: folded (disulfides not given here))” the “Blockade” value (Kv1.3) was “active in blocking human Kv1.3”.

For dendrotoxin-K, the “Thapsigargin-induced upregulation of CD40L on T cells in human whole blood” value [4] was “no significant activity” and the “Thapsigargin-induced upregulation of the IL-2R on T cells in human whole blood” value [4] was “no significant activity”.

With “iberiotoxin (QFTDVDCSVSKECWSVCKDLFGVDRGKCMGKKCRCYQ; BKCa peptide inhibitor sequence - IbTx) [reference compound]” the “Thapsigargin-induced IFN-g production” value [1] was “no significant activity”, the “Thapsigargin-induced IL-2 production” value [1] was “no significant activity” and the “Thapsigargin-induced upregulation of CD40L on T cells in human whole blood” value [4] was “no significant activity”. The “Thapsigargin-induced upregulation of the IL-2R on T cells in human whole blood” value [4] was “no significant activity”.
